In brackets after ≈: the same amount, converted by molar mass. Residues, ends and D or L forms follow the SMILES beside them. *: point of attachment. Palmitoyl = CCCCCCCCCCCCCCCC(=O)*; Myristoyl = CCCCCCCCCCCCCC(=O)*; Decanoyl = CCCCCCCCCC(=O)*; Hexanoyl = CCCCCC(=O)*
How the values were obtained:
Assay type in all cases: cell-based, Cryptococcus neoformans
[1] = test system: exofacial PS on C. neoformans cells; assay: AF350-annexin V flow cytometry assay; settings: 0.128 mg/mL peptide, 5*10^6 cell/mL, 20 min at 25°C, triplicate; control 0.2 ± 0.1%
Text: We sought to determine whether the activities of the peptides were related to the lipid-flipping activity of the P4-ATPase. […] The intensity of the AF350-annexin V signal corresponds to concentration of PS on the exofacial side of the membrane. The propidium iodine signal corresponds to cell viability. […] Single cells were first selected and gated based on morphology to ensure homogeneity among the cell population (4A, 4B). We examined cells with low propidium iodine intensity (PI-A < 9 RU) and high AF350-annexin V intensity (Annexin V-A > 9 RU) (4C, 4D). Under these gating parameters there should be, respectively, low nonspecific cell death and high exofacial PS.
Stock microbes were defrosted from the –80°C freezer and were passed twice for 48 h each in YPD media. The YPD media was removed by spinning down and the supernatant was decanted. Pelletized cells were resuspended in 1 mL PBS media and washed for 5 min with incubation at 25°C and 250 RPM. Washed cells were spun down again and suspended in 1 mL of PBS solution. cells were diluted 20-fold into 1 mL fungal working solution in an eppendorf. Cell concentration was quantified via comparison to 1X McFarlain’s standard on a plate reader using the absorbance value at 530 nm. An aliquot of 1*10^6 cells in 100 μL was created (1*10^7cell/mL). A 100 μL aliquot of peptide working solution at 0.256 mg/mL was added to the cell suspension for final operating parameters of 200 μL, 0.128 mg/mL peptide, and 5*10^6cell/mL. The cells were incubated for 20 min at 25°C and 250RPM. Baseline and experimental samples were prepared in triplicate. Cells were stained using an operating concentration of 0.001 mg/mL Propidium Iodine (PI) and a 40-fold dilution of Alexa Fluor 350 labeled annexin V as per manufactures instructions. After staining the cells, samples were spun down and supernatant decanted. Cells were then fixed in 4% formaldehyde for 5 min. Fixed cells were spun down and supernatant decanted and resuspended in 400 μL 1% formaldehyde for flowcytometry. Samples were collected at a slow flow rate on a MACS Quant 10 device (Miltenyi Biotech, Auburn, CA) with 50,000 events collected per injection.

[2] = test system: C. neoformans wild-type strain H99; assay: microbe, parasite or virus in culture; settings: for MIC: drug alone, H99 wild type, CLSI broth microdilution, RPMI, 2.5*10^3 cells/mL, 37°C, read at 24 and 48 h; for MIC H99: Table S1, drug alone, wild type H99
Procedure: (§1) Our assays followed standard CLSI protocol for broth microdilution assays using yeasts ([32]). Microbes were passaged in YPD media at 37°C with mixing for 2 days before harvesting with an inoculation loop to prepare monocultures on Sabouraud Dextrose Agar (SDA) plates. Monocultures on SDA plates were incubated for 2 days at 37°C before harvesting cells for microdilution assays. RPMI media (100 μL) was charged to each of the 96 wells in a 96-well plate, with an additional 100 μL in the first column. Peptide-DMSO solution (4 μL) at 12.8 mg/mL was charged to each of the wells in the first column. The 100 μL was serially diluted by a factor of 2 from the first column to the 11th column. Microbe inoculant was then prepared. An inoculation loop was used to transfer 1–3 colonies of cells to 1 mL phosphate buffer solution (PBS). The PBS and microbe solution was made uniform by vortex mixing. Cell concentration was computed by comparing the absorbance at 530 nm to 1x McFarland standard solution and multiplying the resulting ratio by 10^7 cell/mL conversion factor. Plate inoculant was prepared by diluting the PBS microbe solution to 5000 cell/mL, in RPMI media. A 100 μL aliquot of cells was transferred to each of the wells on the plate other than column 11 for the no growth control. The operating volume was 200 μL, with 500 CFU per well for a final concentration of 2.5*10^3 cells/mL. Inoculated plates were incubated for 48 h at 37°C and read at 24 and 48 h ([33]).

[3] = test system: cdc50Δ mutant strain; settings: Table S1, drug alone
Procedure: as §1

[4] = test system: C. neoformans H99; settings: for FIC H99 Caspofungin: Table S1, concentration of caspofungin in combination with the peptide; for FIC H99 Peptide: Table S1, concentration of peptide in combination with caspofungin; for MIC of caspofungin in the presence of 0.5 μg/mL peptide: H99, checkerboard, caspofungin alone 16 μg/mL
Procedure: (§2) Again, 200 μL was the operating volume, 500CFU per well, 2.5*10^3 cell/mL. Plates were incubated for 48 h at 37°C and read thereafter. The Fractional Inhibitory Concentration Index were calculated in Equation 1: FICIndex=FICA/MICA+FICB/MICB

[5] = test system: ΔCDC50 mutant strain; settings: for FIC ΔCDC50 Caspofungin: Table S1, concentration of caspofungin in combination with the peptide; for FIC ΔCDC50 Peptide: Table S1, concentration of peptide in combination with caspofungin
Procedure: as §2

Compound: CCCCCCCCCCCCCC(=O)N[C@@H](Cc1c[nH]c2ccccc12)C(=O)NCC(=O)NCC(=O)N[C@H](C(=O)N[C@@H](C)C(=O)N[C@@H](CCCCN)C(=O)N[C@@H](CC(N)=O)C(=O)N[C@@H](Cc1ccc(O)cc1)C(=O)N[C@@H](C)C(=O)O)[C@@H](C)CC [Peptide K5A-Ma] (Myristoyl-WGGIAKNYA-OH)
- percentage of cells with low propidium iodine (PI-A < 9 RU) and high AF350-annexin V intensity (Annexin V-A > 9 RU) [1]: 5.6 ± 0.1%
- MIC [2]: >128 µg/mL

Compound: CCCCCCCCCCCCCC(=O)N[C@@H](CO)C(=O)NCC(=O)N[C@H](C(=O)N[C@@H](C)C(=O)N[C@@H](Cc1c[nH]c2ccccc12)C(=O)NCC(=O)NCC(=O)N[C@H](C(=O)N[C@@H](CCCCN)C(=O)O)[C@@H](C)CC)[C@@H](C)CC [KS9-Ma] (Myristoyl-SGIAWGGIK-OH)
- MIC H99 [2]: > 128 µg/mL

Compound: CCCCCCCCCCCCCC(=O)N[C@@H](CO)C(=O)N[C@@H](CCC(=O)O)C(=O)N[C@@H](CO)C(=O)NCC(=O)N[C@H](C(=O)N[C@@H](C)C(=O)N[C@@H](Cc1c[nH]c2ccccc12)C(=O)NCC(=O)NCC(=O)O)[C@@H](C)CC [GS9-Ma] (Myristoyl-SESGIAWGG-OH)
- MIC H99 [2]: > 128 µg/mL
- MIC ΔCDC50 [3]: > 128 µg/mL

Compound: H-YVDGFPNLREDEHFQ-OH [QY15]
- MIC H99 [2]: > 128 µg/mL
- FIC H99 Caspofungin ([4]; H99): 8 µg/mL
- FIC H99 Peptide ([4]; H99): 0.5 µg/mL
- FIC ΔCDC50 Caspofungin [5]: 1 µg/mL
- FIC ΔCDC50 Peptide [5]: 0.5 µg/mL

Compound: CCCCCCCCCCCCCCCC(=O)N[C@@H](CO)C(=O)N[C@@H](CCC(=O)O)C(=O)N[C@@H](CO)C(=O)NCC(=O)N[C@H](C(=O)N[C@@H](C)C(=O)N[C@@H](Cc1c[nH]c2ccccc12)C(=O)NCC(=O)NCC(=O)N[C@H](C(=O)N[C@@H](CCCCN)C(=O)N[C@@H](CCCCN)C(=O)N[C@@H](CC(N)=O)C(=O)N[C@@H](Cc1ccc(O)cc1)C(=O)N[C@@H](C)C(=O)O)[C@@H](C)CC)[C@@H](C)CC [AS15-Pa] (Palmitoyl-SESGIAWGGIKKNYA-OH)
- MIC H99 [2]: > 128 µg/mL
- FIC H99 Caspofungin ([4]; H99): 8 µg/mL
- FIC H99 Peptide ([4]; H99): 0.5 µg/mL
- FIC ΔCDC50 Caspofungin [5]: 2 µg/mL
- FIC ΔCDC50 Peptide [5]: 2 µg/mL

Compound: CCCCCCCCCCCCCC(=O)N[C@@H](Cc1ccc(O)cc1)C(=O)N[C@H](C(=O)N[C@@H](CC(=O)O)C(=O)NCC(=O)N[C@@H](Cc1ccccc1)C(=O)N1CCC[C@H]1C(=O)N[C@@H](CC(N)=O)C(=O)N[C@@H](CC(C)C)C(=O)N[C@@H](CCCNC(=N)N)C(=O)N[C@@H](CCC(=O)O)C(=O)N[C@@H](CC(=O)O)C(=O)N[C@@H](CCC(=O)O)C(=O)N[C@@H](Cc1c[nH]cn1)C(=O)N[C@@H](Cc1ccccc1)C(=O)N[C@@H](CCC(N)=O)C(=O)O)C(C)C [QY15-Ma] (Myristoyl-YVDGFPNLREDEHFQ-OH)
- MIC H99 [2]: > 128 µg/mL
- FIC H99 Caspofungin ([4]; H99): 8 µg/mL
- FIC H99 Peptide ([4]; H99): 0.5 µg/mL
- FIC ΔCDC50 Caspofungin [5]: 1 µg/mL
- FIC ΔCDC50 Peptide [5]: 0.5 µg/mL

Compound: CCCCCC(=O)N[C@@H](CO)C(=O)N[C@@H](CCC(=O)O)C(=O)N[C@@H](CO)C(=O)NCC(=O)N[C@H](C(=O)N[C@@H](C)C(=O)N[C@@H](Cc1c[nH]c2ccccc12)C(=O)NCC(=O)NCC(=O)N[C@H](C(=O)N[C@@H](CCCCN)C(=O)N[C@@H](CCCCN)C(=O)N[C@@H](CC(N)=O)C(=O)N[C@@H](Cc1ccc(O)cc1)C(=O)N[C@@H](C)C(=O)O)[C@@H](C)CC)[C@@H](C)CC [AS15-Ha] (Hexanoyl-SESGIAWGGIKKNYA-OH)
- MIC H99 [2]: > 128 µg/mL

Compound: CCCCCCCCCCCCCCCC(=O)N[C@@H](Cc1c[nH]c2ccccc12)C(=O)NCC(=O)NCC(=O)N[C@H](C(=O)N[C@@H](CCCCN)C(=O)N[C@@H](CCCCN)C(=O)N[C@@H](CC(N)=O)C(=O)N[C@@H](Cc1ccc(O)cc1)C(=O)N[C@@H](C)C(=O)O)[C@@H](C)CC [AW9-Pa] (Palmitoyl-WGGIKKNYA-OH)
- MIC H99 [2]: > 128 µg/mL
- MIC ΔCDC50 [3]: 8 µg/mL (≈ 6.28 µM)
- MIC of caspofungin in the presence of 0.5 μg/mL peptide [4]: 8 µg/mL
- FIC Index H99 ([4]; Table S1, caspofungin + peptide, H99): 0.5-1
- FIC H99 Caspofungin ([4]; H99): 8 µg/mL
- FIC H99 Peptide ([4]; H99): 0.5 µg/mL
- FIC Index ΔCDC50 ([5]; Table S1, caspofungin + peptide): 0.75
- FIC ΔCDC50 Caspofungin [5]: 2 µg/mL
- FIC ΔCDC50 Peptide [5]: 1 µg/mL

Compound: H-SESGIAWGGIKKNYA-OH [AS15]
- MIC H99 [2]: > 128 µg/mL
- FIC H99 Caspofungin ([4]; H99): 8 µg/mL
- FIC H99 Peptide ([4]; H99): 0.5 µg/mL
- FIC ΔCDC50 Caspofungin [5]: 1 µg/mL
- FIC ΔCDC50 Peptide [5]: 0.5 µg/mL

Compound: CCCCCCCCCC(=O)N[C@@H](CO)C(=O)N[C@@H](CCC(=O)O)C(=O)N[C@@H](CO)C(=O)NCC(=O)N[C@H](C(=O)N[C@@H](C)C(=O)N[C@@H](Cc1c[nH]c2ccccc12)C(=O)NCC(=O)NCC(=O)N[C@H](C(=O)N[C@@H](CCCCN)C(=O)N[C@@H](CCCCN)C(=O)N[C@@H](CC(N)=O)C(=O)N[C@@H](Cc1ccc(O)cc1)C(=O)N[C@@H](C)C(=O)O)[C@@H](C)CC)[C@@H](C)CC [AS15-Da] (Decanoyl-SESGIAWGGIKKNYA-OH)
- MIC H99 [2]: > 128 µg/mL

Compound: CCCCCCCCCCCCCC(=O)N[C@@H](Cc1c[nH]c2ccccc12)C(=O)NCC(=O)NCC(=O)N[C@H](C(=O)N[C@@H](C)C(=O)N[C@@H](C)C(=O)N[C@@H](CC(N)=O)C(=O)N[C@@H](Cc1ccc(O)cc1)C(=O)N[C@@H](C)C(=O)O)[C@@H](C)CC [K5A;K6A-Ma] (Myristoyl-WGGIAANYA-OH)
- percentage of cells with low propidium iodine (PI-A < 9 RU) and high AF350-annexin V intensity (Annexin V-A > 9 RU) [1]: 1.3 ± 0.9%
- MIC [2]: >128 µg/mL

Compound: CCCCCCCCCCCCCC(=O)N[C@@H](Cc1c[nH]c2ccccc12)C(=O)NCC(=O)NCC(=O)N[C@H](C(=O)N[C@@H](CCCCN)C(=O)N[C@@H](C)C(=O)N[C@@H](CC(N)=O)C(=O)N[C@@H](Cc1ccc(O)cc1)C(=O)N[C@@H](C)C(=O)O)[C@@H](C)CC [Peptide K6A-Ma] (Myristoyl-WGGIKANYA-OH)
- MIC [2]: >128 µg/mL

Compound: CCCCCCCCCCCCCC(=O)N[C@@H](CO)C(=O)N[C@@H](CCC(=O)O)C(=O)N[C@@H](CO)C(=O)NCC(=O)N[C@H](C(=O)N[C@@H](C)C(=O)N[C@@H](Cc1c[nH]c2ccccc12)C(=O)NCC(=O)NCC(=O)N[C@H](C(=O)N[C@@H](CCCCN)C(=O)N[C@@H](CCCCN)C(=O)N[C@@H](CC(N)=O)C(=O)N[C@@H](Cc1ccc(O)cc1)C(=O)N[C@@H](C)C(=O)O)[C@@H](C)CC)[C@@H](C)CC [AS15-Ma] (Myristoyl-SESGIAWGGIKKNYA-OH)
- percentage of cells with low propidium iodine (PI-A < 9 RU) and high AF350-annexin V intensity (Annexin V-A > 9 RU) [1]: 12.1 ± 2.0%
- MIC H99 [2]: > 128 µg/mL
- MIC ΔCDC50 [3]: 8 µg/mL (≈ 4.47 µM)
- MIC of caspofungin in the presence of 0.5 μg/mL peptide [4]: 8 µg/mL
- FIC H99 Caspofungin ([4]; H99): 8 µg/mL
- FIC H99 Peptide ([4]; H99): 0.5 µg/mL
- FIC ΔCDC50 Caspofungin [5]: 0.25 µg/mL
- FIC ΔCDC50 Peptide [5]: 0.25 µg/mL
